Like-named read-outs stand apart in the source and are kept apart here.
Experiments:
[1] = tested on: PC-3 (prostate cancer) cells; assay: Cell proliferation assay (MTS), PC-3; type: cell-based; conditions: 72 h; 3 days treatment, MTS; read-out: IC50 (μM) Prostate cancer PC-3
Method: (§1) The different aminosteroids were dissolved in methanol (50 mM).

[2] = tested on: Human pancreas cancer cells (PANC-1); assay: Cell proliferation assay (MTS), PANC-1; type: cell-based; conditions: for IC50: 3 days treatment, MTS, read-out: IC50 (μM) Pancreatic cancer PANC-1; for antiproliferative activity relative to RM-133, PANC-1: fold of RM-133 activity (>1 = more active)
Method: as §1

[3] = tested on: primary pancreas normal cells; assay: Toxicity on normal cells (MTS), primary pancreas; type: cell-based, human; conditions: for Selectivity Index Pancreas: IC50 normal cells/IC50 cancer cells (primary pancreas / PANC-1); for IC50: human normal cells; for times more toxic relative to RM-133, primary pancreas cells: human, 3 days
Method: as §1

[4] = tested on: primary ovary normal cells; assay: cells; type: cell-based, human; conditions: for Selectivity Index Ovary: IC50 normal cells/IC50 cancer cells (primary ovary / OVCAR-3); for IC50: human normal cells, read-out: IC50 (μM) Primary Ovary (normal cells)
Method: as §1

[5] = tested on: LAPC-4 (prostate cancer) cells; assay: Cell proliferation assay (MTS), LAPC-4; type: cell-based; conditions: Homo sapiens, LAPC4, 72 h, 3 days treatment, MTS; read-out: IC50 (μM) Prostate cancer LAPC-4
Method: as §1

[6] = tested on: HL-60 (acute promyelocytic leukemia) cells; assay: Cell proliferation assay (MTS), HL-60; type: cell-based; conditions: for IC50: 3 days treatment, MTS, read-out: IC50 (μM) HL-60 (leukemia); for antiproliferative activity relative to RM-133, HL-60: fold of RM-133 activity (>1 = more active)
Method: as §1

[7] = tested on: OVCAR-3 cells (ovarian cancer); assay: Cell proliferation assay (MTS), OVCAR-3; type: cell-based; conditions: for IC50: 3 days treatment, MTS, read-out: IC50 (μM) Ovarian cancer OVCAR-3; for antiproliferative activity relative to RM-133, OVCAR-3: fold of RM-133 activity (>1 = more active)
Method: as §1

[8] = tested on: LNCaP (prostate cancer) cells; assay: Cell proliferation assay (MTS), LNCaP; type: cell-based; conditions: Homo sapiens, 72 h, 3 days treatment, MTS, read-out: IC50 (μM) Prostate cancer LNCaP
Method: as §1

[9] = tested on: renal proximal tubule epithelial cells (RPTEC); assay: Toxicity on normal cells (MTS), RPTEC; type: cell-based, human; conditions: for IC50: normal (kidney) cells, read-out: IC50 (μM) RPTEC (normal cells)
Method: as §1

[10] = Metabolic stability assay, human liver microsomes; conditions: 1 h
Method: (§2) Assays were performed at 37° C. for 1 h, with or without 10 mM NADPH in the presence of 40 μg of human liver microsome from Corning (Melrose, Mass., USA) and 10 μM of aminosteroid substrate in a final 100 μL volume of 50 mM Tris buffer (pH 7.4) supplemented with 10 mM MgCl2. Assays were ended by adding 100 μL of MeOH followed by centrifugation at 13,000 g for 10 min to obtain a pellet of proteins. The supernatant of 2 assays was pooled and submitted to HPLC-MS analysis (Shimadzu LCMS-2020 APCI, Alltima HP C18 (250 mm×4.6 mm, 5 μm) column, MeOH:H2O gradient). Remaining substrate (expressed in %) was calculated by dividing the area under the curve of the substrate for the assays without NADPH by the area under the curve of the substrate for the assays with NADPH and multiplied by 100. Values represent the average of 2 independent experiments.

[11] = human, 1 h
Method: as §2

[12] = tested on: MCF-7 breast cancer cells; assay: Cell proliferation assay (MTS), MCF-7; type: cell-based, human; conditions: Homo sapiens, MCF7, 72 h, 3 days treatment
Method: as §1

[13] = tested on: T-47D breast cancer cell line; assay: Cell proliferation assay (MTS), T-47D; type: cell-based; conditions: Homo sapiens, T47D, 72 h; 3 days treatment, MTS
Method: as §1

Row | Compound | IC50 [1] [µM] | IC50 ([2]; Homo sapiens, PANC-1, 72 h) [µM] | antiproliferative activity relative to RM-133, PANC-1 [2] | IC50 [5] [µM] | IC50 ([6]; Homo sapiens, HL-60, 72 h) [µM] | antiproliferative activity relative to RM-133, HL-60 [6] | IC50 ([7]; Homo sapiens, OVCAR-3, 72 h) [µM] | antiproliferative activity relative to RM-133, OVCAR-3 [7] | IC50 [8] [µM] | other results
1 | C#C[C@@]1(O)CC[C@H]2[C@@H]3CC[C@H]4CC(=O)C(N5CCN(C(=O)[C@@H]6CCCN6C(=O)c6ccc7ccccc7n6)CC5)=C[C@]4(C)[C@H]3CC[C@@]21C [1 (enone), (5α,17α)-17-hydroxy-2-(4-{[(2S)-1-(quinolin-2-ylcarbonyl)pyrrolidin-2-yl]carbonyl}piperazin-1-yl)pregn-1-en-20-yn-3-one] | 0.002 | 0.59 | 11.3 fold | 0.03 | 3.16 | 2.3 fold | 0.24 | 22.9 fold | 0.002 | IC50 ([2]; listed as Enone 1): 0.6 µM; Selectivity Index Pancreas [3]: 3.7; IC50 [3]: 2.2 µM; times more toxic relative to RM-133, primary pancreas cells [3]: 4.3 times; Selectivity Index Ovary [4]: 38; IC50 [4]: 9.12 µM; times more toxic relative to RM-133, primary ovary cells ([4]; human, 3 days): 1.6 times; IC50 ([9]; Homo sapiens, RPTEC): 4.5 to 15.3 µM; IC50 [9]: 4.55 µM
2 | C#C[C@@]1(O)CC[C@H]2[C@@H]3CC[C@H]4CC(=O)[C@@H](N5CCN(C(=O)[C@@H]6CCCN6C(=O)c6ccc7ccccc7n6)CC5)C[C@]4(C)[C@H]3CC[C@@]21C [2 (ketone), (2β,5α,17α)-17-hydroxy-2-(4-{[(2S)-1-(quinolin-2-ylcarbonyl)pyrrolidin-2-yl]carbonyl}piperazin-1-yl)pregn-20-yn-3-one] | – | 7.01 | – | – | 6.52 | – | 2.75 | 2 fold | – | Selectivity Index Pancreas [3]: 0.8; IC50 [3]: 5.41 µM; times more toxic relative to RM-133, primary pancreas cells [3]: 1.7 times; Selectivity Index Ovary [4]: 5.5; IC50 [4]: 15 µM; IC50 ([9]; Homo sapiens, RPTEC): 20.7 µM
3 | C#CC1(O)CCC2C3CCC4CC(O)C([N+]5([O-])CCN(C(=O)C6CCCN6C(=O)c6ccc7ccccc7n6)CC5)CC4(C)C3CCC21C [7 (N-oxime), {4-[(2β,3α,5α,17α)-3,17-dihydroxypregn-20-yn-2-yl]-4-oxidopiperazin-1-yl}[(2S)-1-(quinolin-2-ylcarbonyl)pyrrolidin-2-yl]methanone] | – | – | significant loss of activity | – | – | significant loss of activity | – | significant loss of activity | – | IC50 [2]: > 50 µM; IC50 [6]: 43.7 µM; IC50 [7]: 29.9 µM; increased metabolic stability relative to RM-133 ([10]; human hepatic microsomes): 2.6 fold
4 | CN1CCN(C(=O)[C@@H]2CCCN2C(=O)c2ccc3ccccc3n2)CC1 [10 (side-chain only), (4-methylpiperazin-1-yl)[(2S)-1-(quinolin-2-ylcarbonyl)pyrrolidin-2-yl]methanone] | – | > 50 | completely inactive | – | > 50 | completely inactive | > 50 | completely inactive | – | metabolic stability (% of remaining compound) ([10]; 10 μM, 40 μg human liver microsomes, result in words): more stable than steroid 12 lacking the 2β-side chain or RM-133 itself
5 | C#C[C@@]1(O)CC[C@H]2[C@@H]3CC[C@H]4C[C@H](OC(=O)N(C)C)CC[C@]4(C)[C@H]3CC[C@@]21C [12 (no side-chain; and 3-carbamate), (3α,5α,17α)-17-hydroxypregn-20-yn-3-yl dimethylcarbamate] | – | > 50 | inactive | – | 15.2 | inactive | 48.1 | inactive | – | –
6 | C#C[C@@]1(O)CC[C@H]2[C@@H]3CC[C@H]4C[C@@H](N5CCN(C(=O)[C@@H]6CCCN6C(=O)c6ccc7ccccc7n6)CC5)CC[C@]4(C)[C@H]3CC[C@@]21C [15 (side-chain at 3β), {4-[(3β,5α,17α)-17-hydroxypregn-20-yn-3-yl]piperazin-1-yl}[(2S)-1-(quinolin-2-ylcarbonyl)pyrrolidin-2-yl]methanone] | – | > 50 | completely inactive | – | > 50 | completely inactive | > 50 | completely inactive | – | metabolic stability (% of remaining compound) ([11]; microsomes, 10 μM, pH 7.4): little to no variation on the metabolic stability relative to RM-133
7 | C#C[C@@]1(O)CC[C@H]2[C@@H]3CCc4cc(OS(N)(=O)=O)c(N5CCN(C(=O)[C@@H]6CCCN6C(=O)c6ccc7ccccc7n6)CC5)cc4[C@H]3CC[C@@]21C [Compound 4, (17β)-17-ethynyl-17-hydroxy-2-{4-[1-(quinolin-2-ylcarbonyl)-L-prolyl]piperazin-1-yl}estra-1,3,5(10)-trien-3-yl sulfamate] | 1.6 ± 0.1 | 3 ± 0.2 | – | 0.3 ± 0.2 | – | – | 3.1 ± 0.5 | – | 0.9 ± 0.3 | times less toxic relative to RM-133, primary pancreas cells [3]: 3.2 times; times less toxic relative to RM-133, primary ovary cells [4]: 2.9 times; phenolic metabolite RM-581-OH (stability of potential prodrugs to hydrolysis) ([11]; 10 μM, pH 7.4): no trace of the phenolic metabolite RM-581-OH could be observed; IC50 [12]: 1.2 ± 0.4 µM; IC50 [13]: 0.2 ± 0.01 µM
8 | C#C[C@@]1(O)CC[C@H]2[C@@H]3CCc4cc(OC)c(C(=O)N5CCN(C(=O)[C@@H]6CCCN6C(=O)c6ccc7ccccc7n6)CC5)cc4[C@H]3CC[C@@]21C [Compound 25, [(17β)-17-ethynyl-17-hydroxy-3-methoxyestra-1,3,5(10)-trien-2-yl](4-{[(2S)-1-(quinolin-2-ylcarbonyl)pyrrolidin-2-yl]carbonyl}piperazin-1-yl)methanone] | 1.7 ± 0.4 | 3.5 ± 0.4 | – | 0.5 ± 0.2 | – | – | 5.2 ± 1.6 | – | 0.8 ± 0.2 | IC50 [12]: 2.2 ± 0.1 µM; IC50 [13]: 0.3 ± 0.2 µM
9 | C#C[C@]1(O)CC[C@H]2[C@@H]3CCc4cc(OC)c(CN5CCN(C(=O)[C@@H]6CCCN6C(=O)c6ccc7ccccc7n6)CC5)cc4[C@H]3CC[C@@]21C [Compound 29] | 1.7 ± 0.3 | 2.6 ± 0.7 | – | 0.7 ± 0.2 | – | – | 5 ± 0.2 | – | 1.3 ± 0.5 | IC50 [12]: 2.3 ± 0.6 µM; IC50 [13]: 0.4 ± 0.2 µM
10 | (2β,3α,5α,17α)-3,17-dihydroxy-2-(1-methyl-4-t[(2S)-1-(quinolin-2-ylcarbonyl) pyrrolidin-2-yl]carbonylpiperazin-1-ium-1-yl)pregn-20-yne iodide [6 (CH3-salt)] | – | – | significant loss of activity | – | – | significant loss of activity | – | significant loss of activity | – | IC50 [2]: > 50 µM; increased metabolic stability relative to RM-133 ([11]; microsomes): 2.4 fold; IC50 [6]: > 50 µM; IC50 [7]: > 50 µM
11 | (3α,5α,17α)-pregn-20-yne-3,17-diol [11 (no side-chain; and 3α-OH)] | – | – | inactive | – | – | inactive | – | inactive | – | IC50 [2]: > 50 µM; IC50 [6]: > 50 µM; IC50 [7]: > 50 µM
12 | (17β)-17-ethynyl-17-hydroxy-2-{4-[1-(quinolin-2-ylcarbonyl)-L-prolyl]piperazin-1-yl}estra-1,3,5(10)-trien-3-yl dihydrogen phosphate [Compound 5] | – | – | – | – | – | – | – | – | – | times less toxic relative to RM-133, primary pancreas cells ([3]; normal cells): 1.8 times; times less toxic relative to RM-133, primary ovary cells ([4]; normal cells): 1.7 times
13 | (17β)-17-ethynyl-17-hydroxy-2-{4-[1-(quinolin-2-ylcarbonyl)-L-prolyl]piperazin-1-yl}estra-1,3,5(10)-trien-3-yl dimethylcarbamate [Compound 1] | – | – | – | – | – | – | – | – | – | more cytotoxic relative to RM-133, RPTEC ([9]; normal cells): 5.0 fold
